According to patent US12077503B2, “Substituted cyclic amides and their use as herbicides” (FMC CORPORATION, priority 2015, dated 2024):

Assays:
Format in all cases: in vivo
rice (Oryra sativa) = assay: Test B flooded paddy test; conditions: Oryza sativa, 250 g ai/ha, Flood; 0 to 100 scale where 0 is no effect and 100 is complete control; read-out: Rice plant response rating
How it was run: (§1)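 2-leaf plants; pots flooded 3 cm over soil; cpd added to paddy water; depth held; greenhouse 13–15 d; visual rating vs controls, 0 = no effect, 100 = complete control.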

[1] = tested on: barnyardgrass (Echinochloa crus-galli); assay: Test B flooded paddy test; conditions: Echinochloa crus-galli, 250 g ai/ha, Flood; 0 to 100 scale where 0 is no effect and 100 is complete control; read-out: Barnyardgrass plant response rating
How it was run: as §1

[2] = tested on: ducksalad (Heteranthera limosa); assay: Test B flooded paddy test; conditions: Heteranthera limosa, 250 g ai/ha, Flood; 0 to 100 scale where 0 is no effect and 100 is complete control; read-out: Ducksalad plant response rating
How it was run: as §1

[3] = tested on: sedge, umbrella (small-flower umbrella sedge, Cyperus difformis); assay: Test B flooded paddy test; conditions: Cyperus difformis, 250 g ai/ha, Flood; 0 to 100 scale where 0 is no effect and 100 is complete control; read-out: Sedge, Umbrella plant response rating
How it was run: as §1

[4] = tested on: ryegrass, Italian (Italian ryegrass, Lolium multiflorum); assay: Test A preemergence; conditions: Lolium multiflorum, pre-emergence, 240 h, 0 to 100 scale where 0 is no effect and 100 is complete control, read-out: Ryegrass, Italian plant response rating
How it was run: (§2)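 Seeds sprayed preemergence with a directed soil spray, or plants at 2 to 10 cm height and one- to two-leaf stage sprayed postemergence, with test chemicals in a non-phytotoxic solvent mixture containing surfactant, in loam soil–sand blend. Injury rated visually against untreated controls after about 10 d in greenhouse, 0 (no effect) to 100 (complete control).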

Kochia (Kochia scoparia) [5] = assay: Test A preemergence; conditions: Bassia scoparia, pre-emergence, 240 h, 31 g ai/ha, Preemergence; 0 to 100 scale where 0 is no effect and 100 is complete control; read-out: Kochia plant response rating
How it was run: as §2

[6] = tested on: barnyardgrass (Echinochloa crus-galli); assay: Test A preemergence; conditions: Echinochloa crus-galli, pre-emergence, 240 h, 0 to 100 scale where 0 is no effect and 100 is complete control, read-out: Barnyardgrass plant response rating
How it was run: as §2

[7] = tested on: pigweed (Amaranthus retroflexus); assay: Test A preemergence; conditions: Amaranthus retroflexus, pre-emergence, 240 h, 0 to 100 scale where 0 is no effect and 100 is complete control, read-out: Pigweed plant response rating
[8] = tested on: giant foxtail (Setaria faberii); assay: Test A preemergence; conditions: Setaria faberi, pre-emergence, 240 h, 0 to 100 scale where 0 is no effect and 100 is complete control, read-out: Foxtail, Giant plant response rating
How it was run: as §2

[9] = tested on: ragweed (common ragweed, Ambrosia elatior); assay: Test A preemergence; conditions: Ambrosia artemisiifolia, pre-emergence, 240 h, 0 to 100 scale where 0 is no effect and 100 is complete control, read-out: Ragweed plant response rating
How it was run: as §2

[10] = tested on: ryegrass, Italian (Italian ryegrass, Lolium multiflorum); assay: Test A postemergence; conditions: Lolium multiflorum, post-emergence, 240 h
How it was run: as §2

Kochia (Kochia scoparia) [11] = assay: Test A postemergence; conditions: Bassia scoparia, post-emergence, 240 h, Postemergence, 31 g ai/ha; visual injury after approx. 10 d; 0 to 100 scale, 0 no effect, 100 complete control; read-out: Plant response rating, Kochia
How it was run: as §2

[12] = tested on: wheat (Triticum aestivum); assay: Test A postemergence; conditions: Triticum aestivum, post-emergence, 240 h
How it was run: as §2

[13] = tested on: barnyardgrass (Echinochloa crus-galli); assay: Test A postemergence; conditions: Echinochloa crus-galli, post-emergence, 240 h
How it was run: as §2

[14] = tested on: pigweed (Amaranthus retroflexus); assay: Test A postemergence; conditions: Amaranthus retroflexus, post-emergence, 240 h
How it was run: as §2

[15] = tested on: blackgrass (Alopecurus myosuroides); assay: Test A postemergence; conditions: Alopecurus myosuroides, post-emergence, 240 h
How it was run: as §2

[16] = tested on: giant foxtail (Setaria faberii); assay: Test A postemergence; conditions: Setaria faberi, post-emergence, 240 h
How it was run: as §2

[17] = tested on: Galium (catchweed bedstraw, Galium aparine); assay: Test A postemergence; conditions: Galium, post-emergence, 240 h
How it was run: as §2

corn (Zea mays) = assay: Test A postemergence; conditions: Zea mays, post-emergence, 240 h
How it was run: as §2

[18] = tested on: ragweed (common ragweed, Ambrosia elatior); assay: Test A postemergence; conditions: Ambrosia artemisiifolia, post-emergence, 240 h
How it was run: as §2

[19] = 125 g ai/ha, preemergence, approx. 10 d

Cc1cc([C@H]2CN(C)C(=O)[C@@H]2C(=O)Nc2ccccc2C(F)(F)F)ccc1Br [Compound 1103]
70%: pest or weed control at 125 g/ha [6, 19] | pest or weed control at 31 g/ha ([8]; 31 g ai/ha, Preemergence) | pest or weed control at 125 g/ha ([13]; 125 g ai/ha, postemergence, visual injury on 0 to 100 scale (0 no effect, 100 complete control), approx. 10 d, read-out: Barnyardgrass plant response rating)
40%: pest or weed control at 31 g/ha ([13]; Postemergence, 31 g ai/ha, visual injury after approx. 10 d, 0 to 100 scale, 0 no effect, 100 complete control, read-out: Plant response rating, Barnyardgrass)
20%: pest or weed control at 31 g/ha ([6]; 31 g ai/ha, Preemergence) | pest or weed control at 125 g/ha [9, 19] | pest or weed control at 125 g/ha ([10]; 125 g ai/ha, postemergence, visual injury on 0 to 100 scale (0 no effect, 100 complete control), approx. 10 d, read-out: Ryegrass, Italian plant response rating) | plant injury at 125 g/ha ([12]; 125 g ai/ha, postemergence, visual injury on 0 to 100 scale (0 no effect, 100 complete control), approx. 10 d, read-out: Wheat plant response rating) | pest or weed control at 31 g/ha ([15]; Postemergence, 31 g ai/ha, visual injury after approx. 10 d, 0 to 100 scale, 0 no effect, 100 complete control, read-out: Plant response rating, Blackgrass)
80%: pest or weed control at 125 g/ha ([16]; 125 g ai/ha, postemergence, visual injury on 0 to 100 scale (0 no effect, 100 complete control), approx. 10 d, read-out: Foxtail, Giant plant response rating)
90%: pest or weed control at 250 g/ha [2] | pest or weed control at 125 g/ha [8, 19]
25%: pest or weed control at 250 g/ha (rice (Oryra sativa))
50%: pest or weed control at 31 g/ha ([16]; Postemergence, 31 g ai/ha, visual injury after approx. 10 d, 0 to 100 scale, 0 no effect, 100 complete control, read-out: Plant response rating, Foxtail, Giant) | pest or weed control at 125 g/ha ([17]; 125 g ai/ha, postemergence, visual injury on 0 to 100 scale (0 no effect, 100 complete control), approx. 10 d, read-out: Galium plant response rating)
0%: pest or weed control at 250 g/ha [3] | pest or weed control at 31 g/ha ([4]; 31 g ai/ha, Preemergence) | pest or weed control at 125 g/ha [4, 19] | pest or weed control at 31 g/ha (Kochia (Kochia scoparia) [5]) | pest or weed control at 31 g/ha ([7]; 31 g ai/ha, Preemergence) | pest or weed control at 125 g/ha [7, 19] | pest or weed control at 31 g/ha ([9]; 31 g ai/ha, Preemergence) | pest or weed control at 31 g/ha ([10]; Postemergence, 31 g ai/ha, visual injury after approx. 10 d, 0 to 100 scale, 0 no effect, 100 complete control, read-out: Plant response rating, Ryegrass, Italian) | pest or weed control at 31 g/ha (Kochia (Kochia scoparia) [11]) | plant injury at 31 g/ha ([12]; Postemergence, 31 g ai/ha, visual injury after approx. 10 d, 0 to 100 scale, 0 no effect, 100 complete control, read-out: Plant response rating, Wheat) | pest or weed control at 125 g/ha ([14]; 125 g ai/ha, postemergence, visual injury on 0 to 100 scale (0 no effect, 100 complete control), approx. 10 d, read-out: Pigweed plant response rating) | pest or weed control at 31 g/ha ([14]; Postemergence, 31 g ai/ha, visual injury after approx. 10 d, 0 to 100 scale, 0 no effect, 100 complete control, read-out: Plant response rating, Pigweed) | plant injury at 125 g/ha (corn (Zea mays); 125 g ai/ha, postemergence, visual injury on 0 to 100 scale (0 no effect, 100 complete control), approx. 10 d, read-out: Corn plant response rating) | Corn plant response rating (crop injury, 0 = no effect, 100 = complete kill) at 31 g/ha (corn (Zea mays); Postemergence, 31 g ai/ha, visual injury after approx. 10 d, 0 to 100 scale, 0 no effect, 100 complete control) | pest or weed control at 31 g/ha ([18]; Postemergence, 31 g ai/ha, visual injury after approx. 10 d, 0 to 100 scale, 0 no effect, 100 complete control, read-out: Plant response rating, Ragweed)
30%: pest or weed control at 125 g/ha ([15]; 125 g ai/ha, postemergence, visual injury on 0 to 100 scale (0 no effect, 100 complete control), approx. 10 d, read-out: Blackgrass plant response rating) | pest or weed control at 31 g/ha ([17]; Postemergence, 31 g ai/ha, visual injury after approx. 10 d, 0 to 100 scale, 0 no effect, 100 complete control, read-out: Plant response rating, Galium) | pest or weed control at 125 g/ha ([18]; 125 g ai/ha, postemergence, visual injury on 0 to 100 scale (0 no effect, 100 complete control), approx. 10 d, read-out: Ragweed plant response rating)
75%: pest or weed control at 250 g/ha [1]
